Counter-ions that a name gives are not always drawn. Like-named read-outs stand apart in the source and are kept apart here.
How the values were obtained:
p70S6K (h) = p70S6K (h) (Homo sapiens, UniProt P23443); test: Determination of p70S6 inhibitory activity (radiometric kinase assay); assay type: biochemical; settings: read-out: (a) p70S6K1 IC50
Protocol: The ability of compounds of the invention to inhibit P70S6 kinase was determined using the protocol below.
20 mM MOPS, 1 mM EDTA, 0.01% Brij-35, 5% Glycerol, 0.1% b-mercaptoethanol, 1 mg/mL BSA
In a final reaction volume of 25 μL, p70S6K (h) (5-10 mU) is incubated with 8 mM MOPS pH 7.0, 0.2 mM EDTA, 100 μM KKRNRTLTV, 10 mM Mg acetate and [γ-33P-ATP] (specific activity approx. 500 cpm/pmol, concentration as required). The reaction is initiated by the addition of the MgATP mix. After incubation for 40 minutes at room temperature, the reaction is stopped by the addition of 5 μL of a 3% phosphoric acid solution. 10 μL of the reaction mixture is then spotted onto a P30 filtermat and washed three times for 5 minutes in 75 mM phosphoric acid and once in methanol prior to drying and scintillation counting.

[1] = test system: phosphorylation of S6 Ser235/236 in MCF-7 cells; test: MCF-7 pS6 ELISA (phosphorylation of S6 Ser235/236); assay type: cell-based; settings: Homo sapiens, MCF7; for IC50: S6 Ser235/236, 1% FBS, 2 h, read-out: (b) MCF-7 pS6 ELISA IC50
Protocol: The following assay provides IC50 values for inhibition of P70S6K activity in a whole cell assay by determining effects on the phosphorylation of S6^Ser235/236 in MCF-7 cells by ELISA.
The following protocol was used: • 1) MCF-7 cells were seeded in 96-well plates at a density of 7000 cells per well and allowed to adhere for 6 h in media containing 10% FBS. • 2) The full serum media was replaced and cells incubated overnight in media containing 1% FBS, prior to addition of test compounds. • 3) Test compounds were prepared from 10 mM DMSO stocks to give final concentration ranges as indicated on graphs. DMSO was constant at a final concentration of 1%. • 4) Test compounds were incubated with cells in duplicate for 2 h at 37° C/5% CO2 in a humidified atmosphere. • 5) The media was removed and cells were lysed by freeze-thawing in cell lysis buffer. • 6) Detection of phosphorylated S6Ser235/236 was then carried out using a PathScan ELISA kit (Cell Signaling Technology #7205). • 7) Lysates were diluted 1:1 with sample diluent before being applied to wells coated with an antibody against phosphorylated-S6 protein. • 8) The ELISA was then performed as stated in the manufacturers' instructions. • 9) The raw data were normalised to control values and analysed using a 4-parameter logistic equation in GraphPad Prism.

MCF-7 cells = test: MCF-7 proliferation assay (Alamar blue, 72 h); assay type: cell-based; settings: Homo sapiens, MCF7, 72 h; read-out: (c) MCF-7 proliferation IC50
Protocol: The following assay was used to determine the ability of test compounds to inhibit cell growth.
The following protocol was used: • 1) MCF-7 cells were seeded in 96-well plates at 5000 cells per well and allowed to adhere overnight prior to addition of compound or vehicle control. • 2) Test compounds were prepared from 10 mM DMSO stocks to give a final concentration range of 100 μM, 30 μM, 10 μM, 3 μM, 1 μM, 0.3 μM, 0.1 μM, 0.03 μM, 0.01 μM and vehicle control. The DMSO content was constant at 1%. • 3) Test compounds were incubated with the cells for 72 h at 37° C. 5% CO2 in a humidified atmosphere. • 4) Alamar blue 10% (v/v) was then added and incubated for a further 6 h, and fluorescent product detected using the BMG FLUOstar plate reader. • 5) Data were analysed using a 4-parameter logistic equation in GraphPad Prism.

[2] = Brain and plasma concentrations in an in vivo cassette mouse model; design: species or system male CD-1 mice; settings: male, PO cassette, 2.5 mg/kg per compound; for Kp at 3 h: read-out: (d) Brain: Plasma ratio at 3 hours
Protocol: The compounds of this invention were evaluated in an in vivo cassette mouse model to determine brain and plasma concentrations following oral dosing. This is an industry-standard and recognised means to assess brain penetration of small molecules (for recent literature article, refer to In vitro permeability analysis, pharmacokinetic and brain distribution study in mice of imperatorin, isoimperatorin and cnidilin in Radix Angelicae Dahuricae, Fitoterapia, Volume 85, March 2013 , Pages 144-153). It is also recognised that higher brain concentrations (and higher ratios of brain: plasma concentration) lead to greater exposure in the brain—this is clearly advantageous if the brain is the site of action.
For a single cassette study, male CD-1 mice were used (n=3 per timepoint, two timepoints: 1.0 hr and 3.0 hr).
5 compounds were dosed PO per cassette (dose level 2.5 mg/kg per compound, dose conc. 0.25 mg/ml, dose volume 10.0 ml/kg).
Formulation used to solubilize compounds: 10% DMSO/90% hydroxypropyl-β-cyclodextrin (20% w/v aqueous)
Sampling was terminal and plasma and brain matrices were generated. To prepare plasma samples, protein was precipitated using acetonitrile. To prepare brain samples, homogenisation and protein precipitation was performed with acetonitrile. Samples were analysed using HPLC-TOF MS using electrospray ionisation.

[3] = test system: phosphorylation of S6 at Serine residues 240 and 244 in MCF7 cells; test: MCF7 pS6 ELISA variant (pS240/244, 0% FBS); assay type: cell-based; settings: Homo sapiens, S6 Serine 240 and 244 detected, read-out: (b) MCF-7 pS6 ELISA IC50 (pS240/244 variant)
[4] = CD-1, brain, read-out: (d) Brain conc. at 3 hours
[5] = CD-1, plasma, read-out: (d) Plasma conc. at 3 hours

p70S6K (h), sequence (P23443 whole entry): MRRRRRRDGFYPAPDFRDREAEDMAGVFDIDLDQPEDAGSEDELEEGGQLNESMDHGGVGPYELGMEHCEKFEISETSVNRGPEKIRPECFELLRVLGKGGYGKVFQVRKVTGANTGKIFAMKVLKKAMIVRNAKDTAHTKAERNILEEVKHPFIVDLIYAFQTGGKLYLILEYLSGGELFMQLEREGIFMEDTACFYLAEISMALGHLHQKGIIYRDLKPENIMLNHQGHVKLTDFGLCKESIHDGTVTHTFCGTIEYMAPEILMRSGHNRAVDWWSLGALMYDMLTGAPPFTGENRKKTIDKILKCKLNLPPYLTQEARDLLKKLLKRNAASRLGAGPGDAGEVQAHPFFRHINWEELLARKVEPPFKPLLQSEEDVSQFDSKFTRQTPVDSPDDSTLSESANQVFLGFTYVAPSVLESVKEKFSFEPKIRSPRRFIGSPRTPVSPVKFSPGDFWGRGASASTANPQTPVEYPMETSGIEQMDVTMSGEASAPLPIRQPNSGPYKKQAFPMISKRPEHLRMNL

Row | IC50 (p70S6K (h)) | IC50 [1] | IC50 (MCF-7 cells) | concentration at 3 h [2, 4] | Kp at 3 h ([2]; CD-1, brain) | concentration at 3 h [2, 5] | IC50 [3] | SMILES | inhibition at 0.3 µM ([1]; at 0.3 uM, read-out: (b) MCF-7 pS6 ELISA inhibition)
1 | 4 nM | 3000 nM | 12200 nM | 3650 nM | 3.8 | 970 nM |  | CN(Cc1ccccc1)c1cnc2cc(-c3cn[nH]c3)ccc2n1 [Example 1] | 
2 | 25 nM | 400 nM | 15000 nM | 1500 nM | 1.2 | 1230 nM |  | Clc1cccc(CNc2cnc3cc(-c4cn[nH]c4)ccc3n2)c1 [Example 2] | 
3 | 26 nM | 3200 nM | 5300 nM | 590 nM | 1.1 | 520 nM |  | Fc1ccc(CNc2cnc3cc(-c4cn[nH]c4)ccc3n2)cc1 [Example 3] | 
4 | 30 nM | 400 nM | 2300 nM | 1080 nM | 0.6 | 1730 nM |  | COc1cccc(CNc2cnc3cc(-c4cn[nH]c4)ccc3n2)c1 [Example 4] | 
5 | 12 nM | 3200 nM | 33000 nM | 2480 nM | 3.3 | 760 nM |  | CN(Cc1ccc(F)cc1)c1cnc2cc(-c3cn[nH]c3)ccc2n1 [Example 5] | 
6 | 33 nM |  | 28000 nM | 2380 nM | 4.3 | 550 nM |  | CCN(Cc1ccccc1)c1cnc2cc(-c3cn[nH]c3)ccc2n1 [Example 6] | 
7 | 9 nM | 900 nM | 7000 nM | 2880 nM | 3.5 | 830 nM |  | CN(Cc1cccc(F)c1)c1cnc2cc(-c3cn[nH]c3)ccc2n1 [Example 7] | 
8 | 26 nM | 1400 nM | 24000 nM | 820 nM | 1.1 | 760 nM |  | Fc1ccc(CNc2cnc3cc(-c4cn[nH]c4)ccc3n2)cc1F [Example 8] | 
9 | 3 nM | 300 nM | 15000 nM | 2070 nM | 1.4 | 1510 nM |  | C[C@@H](Nc1cnc2cc(-c3cn[nH]c3)ccc2n1)c1ccccc1 [Example 9] | 
10 | 62 nM |  |  | 750 nM | 4.2 | 180 nM |  | CN(Cc1ccccc1)c1nc2ccc(-c3cn[nH]c3)cc2[n+]([O-])n1 [Example 10] | 
11 | 64 nM |  |  | 2620 nM | 7.5 | 350 nM |  | CN(Cc1ccccc1)c1nnc2cc(-c3cn[nH]c3)ccc2n1 [Example 11] | 
12 | 7 nM | 800 nM | 8400 nM | 2400 nM | 0.5 | 5050 nM |  | COc1cccc([C@@H](C)Nc2cnc3cc(-c4cn[nH]c4)ccc3n2)c1 [Example 12] | 
13 | 5 nM | 1200 nM |  | 2960 nM | 4.2 | 700 nM |  | C[C@H](c1ccccc1)N(C)c1cnc2cc(-c3cn[nH]c3)ccc2n1 [Example 13] | 
14 | 9 nM | 900 nM | 9000 nM | 2650 nM | 3.3 | 790 nM |  | COc1cccc([C@@H](C)N(C)c2cnc3cc(-c4cn[nH]c4)ccc3n2)c1 [Example 14] | 
15 | 18 nM |  | 4200 nM | 3250 nM | 1 | 3340 nM |  | Cc1cccc([C@@H](C)Nc2cnc3cc(-c4cn[nH]c4)ccc3n2)c1 [Example 16] | 57%
16 | 32 nM |  |  | 210 nM | 1.3 | 160 nM |  | [O-][n+]1nc(NCc2ccccc2)nc2ccc(-c3cn[nH]c3)cc21 [Example 17] | 
17 | 12 nM |  |  | 990 nM | 1.8 | 560 nM | 5040 nM | C[C@@H](Nc1nc2ccc(-c3cn[nH]c3)cc2[n+]([O-])n1)c1ccccc1 [Example 18, 1-oxido-N-[(1R)-1-phenylethyl]-7-(1H-pyrazol-4-yl)-1,2,4-benzotriazin-1-ium-3-amine hydrochloride] | 
18 | 22 nM |  |  | 2330 nM | 2.9 | 810 nM | 4590 nM | C[C@@H](Nc1nnc2cc(-c3cn[nH]c3)ccc2n1)c1ccccc1 [Example 19, N-[(1 R)-1-phenylethyl]-7-(1H-pyrazol-4-yl)-1,2,4-benzotriazin-3-amine hydrochloride] | 
